Test results: patent US10065990B2, “Cyclic peptide compound, and preparation method, pharmaceutical composition and use thereof” (HANGZHOU GUANYU BIO-MEDICAL CO., LTD, priority 2013, dated 2018)
Read-outs that look alike come from different tables or passages of the source.

Experiments:
HDAC7 = target: T1, HDAC7 (Homo sapiens, UniProt Q8WUI4); test: HDAC biochemical activity measurement (fluorescent substrate deacetylation);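 for all read-outs here: fluorogenic deacetylation assay using acetyl-lysine substrate at 20 µM, enzyme and compound incubated 30 min at 37 °C, then developer added, fluorescence read at 360/460 nm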; details: for IC50 HDAC7: 37° C. 30 minutes
T1 sequence (Q8WUI4 1-952): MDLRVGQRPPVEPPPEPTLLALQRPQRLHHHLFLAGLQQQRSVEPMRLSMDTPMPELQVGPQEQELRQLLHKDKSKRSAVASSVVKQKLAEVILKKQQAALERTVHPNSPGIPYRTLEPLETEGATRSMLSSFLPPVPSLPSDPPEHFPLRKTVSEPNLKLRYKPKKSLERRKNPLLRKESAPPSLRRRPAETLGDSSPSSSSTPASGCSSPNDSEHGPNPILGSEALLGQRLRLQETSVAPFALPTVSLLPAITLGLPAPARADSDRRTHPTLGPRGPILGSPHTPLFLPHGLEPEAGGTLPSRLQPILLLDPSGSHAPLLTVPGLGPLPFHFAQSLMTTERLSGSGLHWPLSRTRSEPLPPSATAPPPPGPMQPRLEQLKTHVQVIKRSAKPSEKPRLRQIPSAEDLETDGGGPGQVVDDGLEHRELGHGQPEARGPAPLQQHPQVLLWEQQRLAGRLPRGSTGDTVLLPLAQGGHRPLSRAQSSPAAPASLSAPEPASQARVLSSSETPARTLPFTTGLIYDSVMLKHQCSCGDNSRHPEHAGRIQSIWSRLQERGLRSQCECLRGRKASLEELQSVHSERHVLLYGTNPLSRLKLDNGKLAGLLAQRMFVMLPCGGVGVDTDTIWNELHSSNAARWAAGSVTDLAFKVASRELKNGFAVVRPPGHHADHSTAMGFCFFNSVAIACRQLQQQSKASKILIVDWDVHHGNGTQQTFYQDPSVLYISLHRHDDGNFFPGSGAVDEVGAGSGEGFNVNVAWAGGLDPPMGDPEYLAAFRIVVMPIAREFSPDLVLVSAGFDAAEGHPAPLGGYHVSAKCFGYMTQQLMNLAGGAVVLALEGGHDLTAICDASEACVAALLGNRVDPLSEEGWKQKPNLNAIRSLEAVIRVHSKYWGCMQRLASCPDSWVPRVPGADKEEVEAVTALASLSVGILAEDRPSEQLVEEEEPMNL

[1] = tested on: MOLT-4 (human acute lymphoblastic leukemia cells); test: MTT cancer cell growth inhibition; format: cell-based; details: Homo sapiens, MOLT-4, 72 h, MTT, 72 hours incubation, read-out: GI50 Mol
How it was run: (§1)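 Seed 1500 cells/well, incubate overnight. Add compound, 10^−5 to 10^−10 M final, n=3; culture 72 h, 37° C., 5% CO2. Add MTT, 4 h. Discard supernatant, dissolve in DMSO. Read 570 nm; calculate viability and GI50.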

[2] = tested on: HT1080 (human fibrosarcoma cells); test: MTT cancer cell growth inhibition; format: cell-based; details: Homo sapiens, HT-1080, 72 h, MTT, 72 hours incubation, read-out: GI50 HT1
How it was run: as §1

[3] = tested on: KBM5-T315I (human chronic myelogenous leukemia); test: MTT cancer cell growth inhibition; format: cell-based; details: Homo sapiens, 72 h, MTT, 72 hours incubation, KBM5-T315I cells; read-out: GI50 KBM5-T315I
How it was run: as §1

[4] = tested on: BGC-823 (human gastric cancer cells); test: MTT cancer cell growth inhibition; format: cell-based; details: Homo sapiens, BGC-823, 72 h, MTT, 72 hours incubation, read-out: GI50 BG
How it was run: as §1

[5] = tested on: SGC-7901 (human gastric cancer cells); test: MTT cancer cell growth inhibition; format: cell-based; details: Homo sapiens, SGC-7901, 72 h, MTT, 72 hours incubation, SGC-7901 cells; read-out: GI50 SGC-7901
How it was run: as §1

[6] = tested on: KBM-5 (human chronic myelogenous leukemia); test: MTT cancer cell growth inhibition; format: cell-based; details: Homo sapiens, KBM5, 72 h, MTT, 72 hours incubation, KBM-5 cells; read-out: GI50 KBM-5
How it was run: as §1

[7] = tested on: K562 (human leukemia cells); test: MTT cancer cell growth inhibition; format: cell-based; details: Homo sapiens, K562, 72 h, MTT, 72 hours incubation, K562 cells; read-out: GI50 K562
How it was run: as §1

[8] = tested on: U937 (human leukemia cells); test: MTT cancer cell growth inhibition; format: cell-based; details: Homo sapiens, U-937, 72 h, MTT, 72 hours incubation, read-out: GI50 U93
How it was run: as §1

[9] = tested on: Hela (human cervical cancer cells); test: MTT cancer cell growth inhibition; format: cell-based; details: Homo sapiens, HeLa, 72 h, MTT, 72 hours incubation, read-out: GI50 Hela
How it was run: as §1

[10] = tested on: Huh-7 (human hepatoma cells); test: MTT cancer cell growth inhibition; format: cell-based; details: Homo sapiens, Huh-7, 72 h, MTT, 72 hours incubation, Huh-7 cells; read-out: GI50 Huh-7
How it was run: as §1

[11] = tested on: MCF-7 (human breast cancer cells); test: MTT cancer cell growth inhibition; format: cell-based; details: Homo sapiens, MCF7, 72 h, 72 hours incubation, read-out: GI50 MCF
How it was run: as §1

[12] = tested on: HCC827 (human non-small cell lung cancer cells); test: MTT cancer cell growth inhibition; format: cell-based; details: Homo sapiens, HCC827, 72 h, MTT, 72 hours incubation, HCC827 cells; read-out: GI50 HCC827
How it was run: as §1

[13] = tested on: A549 (human lung cancer cells); test: MTT cancer cell growth inhibition; format: cell-based; details: Homo sapiens, A549, 72 h, MTT, 72 hours incubation, read-out: GI50 A54
How it was run: as §1

[14] = tested on: Bel-7402 (human hepatoma cells); test: MTT cancer cell growth inhibition; format: cell-based; details: Homo sapiens, Bel-7402, 72 h, MTT, 72 hours incubation, Bel-7402 cells; read-out: GI50 Bel-7402
How it was run: as §1

[15] = tested on: H1975 (non-small cell lung adenocarcinoma); test: MTT cancer cell growth inhibition; format: cell-based; details: Homo sapiens, NCI-H1975, 72 h, MTT, 72 hours incubation, H1975 cells; read-out: GI50 H1975
How it was run: as §1

[16] = tested on: MDA-MB-231 (breast cancer cells); test: MTT cancer cell growth inhibition; format: cell-based; details: Homo sapiens, MDA-MB-231, 72 h, read-out: GI50 MDA-MB-231, MTT, 72 hours incubation, MDA-MB-231 cells
How it was run: as §1

[17] = tested on: PANC-1 (Pac-1, human pancreatic cancer cells); test: MTT cancer cell growth inhibition; format: cell-based; details: Homo sapiens, PANC-1, 72 h, MTT, 72 hours incubation, read-out: GI50 PAN
How it was run: as §1

[18] = tested on: N-87 (human gastric cancer cells); test: MTT cancer cell growth inhibition; format: cell-based; details: Homo sapiens, 72 h, MTT, 72 hours incubation, N-87 cells; read-out: GI50 N-87
How it was run: as §1

[19] = tested on: lncap (prostate cancer cells); test: MTT cancer cell growth inhibition; format: cell-based; details: Homo sapiens, LNCaP, 72 h, MTT, 72 hours incubation, read-out: GI50 lnca
How it was run: as §1

[20] = tested on: DU145 (human prostate cancer cells); test: MTT cancer cell growth inhibition; format: cell-based; details: Homo sapiens, DU-145, 72 h, MTT, 72 hours incubation, read-out: GI50 Du1
How it was run: as §1

C/C=C1\NC(=O)c2ccc(SCC)c(n2)CNC(=O)C[C@@H](/C=C/CCSC(=O)CCCCCC)OC(=O)[C@H](C(C)C)NC1=O [Compound 252]
IC50 (μM) HDAC7 (HDAC7): no activity | GI50 ([1]; MOLT-4 cells): 90 nM | GI50 ([2]; HT1080 cells): 40 nM | GI50 [3]: 81 nM | GI50 ([4]; BGC-823 cells): 30 nM | GI50 [5]: 35 nM | GI50 [6]: 72 nM | GI50 [7]: 81 nM | GI50 ([8]; U937 cells): 40 nM | GI50 ([9]; Hela cells): 50 nM | GI50 [10]: 26 nM | GI50 ([11]; MCF-7 cells): 20 nM | GI50 [12]: 76 nM | GI50 ([13]; A549 cells): 50 nM | GI50 [14]: 79 nM | GI50 [15]: 90 nM | GI50 [16]: 42 nM | GI50 ([17]; PANC-1 cells): 60 nM | GI50 [18]: 67 nM | GI50 ([19]; lncap cells): 50 nM | GI50 ([20]; DU145 cells): 70 nM

C/C=C1\NC(=O)c2cc(SC)cc(n2)CNC(=O)C[C@@H](/C=C/CCS)OC(=O)[C@H](CC)NC1=O [Compound 230]
IC50 HDAC7 (HDAC7): no activity | GI50 ([1]; MOLT-4 cells): 30 nM | GI50 ([2]; HT1080 cells): 20 nM | GI50 [3]: 87 nM | GI50 ([4]; BGC-823 cells): 30 nM | GI50 [5]: 48 nM | GI50 [6]: 26 nM | GI50 [7]: 23 nM | GI50 ([8]; U937 cells): 20 nM | GI50 ([9]; Hela cells): 20 nM | GI50 [10]: 91 nM | GI50 ([11]; MCF-7 cells): 70 nM | GI50 [12]: 35 nM | GI50 ([13]; A549 cells): 20 nM | GI50 [14]: 23 nM | GI50 [15]: 35 nM | GI50 [16]: 83 nM | GI50 ([17]; PANC-1 cells): 30 nM | GI50 [18]: 36 nM | GI50 ([19]; lncap cells): 50 nM | GI50 ([20]; DU145 cells): 50 nM

C/C=C1\NC(=O)c2ncc(F)c(n2)CNC(=O)C[C@@H](/C=C/CCSC(C)=O)OC(=O)[C@H](C)NC1=O [Compound 99]
IC50 HDAC7 (HDAC7): no activity | GI50 [1]: 20 nM | GI50 [2]: 70 nM | GI50 [3]: 22 nM | GI50 [4]: 60 nM | GI50 [5]: 69 nM | GI50 [6]: 19 nM | GI50 [7]: 42 nM | GI50 [8]: 60 nM | GI50 [9]: 60 nM | GI50 [10]: 31 nM | GI50 [11]: 10 nM | GI50 [12]: 88 nM | GI50 [13]: 60 nM | GI50 [14]: 16 nM | GI50 [15]: 58 nM | GI50 [16]: 24 nM | GI50 [17]: 70 nM | GI50 [18]: 31 nM | GI50 [19]: 20 nM | GI50 [20]: 40 nM

C/C=C1\NC(=O)c2cc(F)cc(n2)CNC(=O)C[C@@H](/C=C/CCS)OC(=O)[C@H](C(C)C)NC1=O [Compound 107]
IC50 HDAC7 (HDAC7): no activity | GI50 [1]: 30 nM | GI50 [2]: 80 nM | GI50 [3]: 41 nM | GI50 [4]: 30 nM | GI50 [5]: 27 nM | GI50 [6]: 72 nM | GI50 [7]: 38 nM | GI50 [8]: 30 nM | GI50 [9]: 60 nM | GI50 [10]: 24 nM | GI50 [11]: 30 nM | GI50 [12]: 13 nM | GI50 [13]: 40 nM | GI50 [14]: 53 nM | GI50 [15]: 57 nM | GI50 [16]: 27 nM | GI50 [17]: 80 nM | GI50 [18]: 35 nM | GI50 [19]: 30 nM | GI50 [20]: 30 nM

C/C=C1\NC(=O)c2nc(ccc2SC)CNC(=O)C[C@@H](/C=C/CCSC(=O)CCCCCCC)OC(=O)[C@H](Cc2ccccc2)NC1=O [Compound 189]
IC50 HDAC7 (HDAC7): no activity | GI50 ([1]; MOLT-4 cells): 50 nM | GI50 ([2]; HT1080 cells): 110 nM | GI50 [3]: 43 nM | GI50 ([4]; BGC-823 cells): 10 nM | GI50 [5]: 23 nM | GI50 [6]: 45 nM | GI50 [7]: 32 nM | GI50 ([8]; U937 cells): 40 nM | GI50 ([9]; Hela cells): 40 nM | GI50 [10]: 21 nM | GI50 ([11]; MCF-7 cells): 30 nM | GI50 [12]: 41 nM | GI50 ([13]; A549 cells): 30 nM | GI50 [14]: 36 nM | GI50 [15]: 41 nM | GI50 [16]: 38 nM | GI50 ([17]; PANC-1 cells): 80 nM | GI50 [18]: 45 nM | GI50 ([19]; lncap cells): 50 nM | GI50 ([20]; DU145 cells): 30 nM
